Test results reported in article PMC7217877, “N-AS-triggered SPMs are direct regulators of microglia in a model of Alzheimer’s disease” (Nature Communications, 2020).
Several values for one entry are separate records, joined by “and”; a condition that tells them apart may be missing. Equal values may be shown once.

What was measured:
[1] = tested on: neuron; test: N-AS generation in primary cultured cells (LC-MS/MS); type: cell-based, C57BL/6 mice; design: N-AS quantification (Fig 3a): dose or concentration left out as unconfirmed; settings: replicates
Description: (§1) Reactions were quenched by adding equal volume of cold methanol. A 100 μl aliquot of the reaction mixture was mixed with 30 μl of distilled water containing 5 ng ml^−1 of furosemide (internal standard) for 1 min and vigorously mixed with […] of ethyl acetate for 20 min. After centrifugation at 16,000×g for 10 min, the mixtures were kept for 2 h for freezing aqueous phase. The upper ethyl acetate layer was transferred to a clean tube and evaporated to dryness under a gentle stream of nitrogen. Then, the dried extract was reconstituted in 100 µl of mobile phase and 10 µl aliquot of the solution was injected into an Agilent 6470 Triple Quad LC–MS/MS system (Agilent, Wilmington, DE) coupled with an Agilent 1260 HPLC system. Separation was performed on a Synergy Polar RP column (4 μm particle size, 2.0 mm × 150 mm, Phenomenex) using a mobile phase that consisted of methanol and water (95:5, v/v) with 0.1% formic acid at a flow rate of 0.2 ml min^−1. Quantification was carried out using multiple reaction monitoring (MRM) at m/z 340.3→263.3 for N-AS and m/z 328.9→284.8 for furosemide (internal standard) in negative ionization mode and collision energy of 20 eV. […] Also, to confirm N-AS generation in neurons, microglia, and astrocytes, these cells were treated with Aβ, and sonicated in neuronal and glial culture medium. […] To evaluate N-AS in microglia and neurons in vivo, the cells were isolated from WT mice, APP/PS1 mice and APP/PS1 mice treated with N-AS at 9 months of age. The cells were sonicated and resuspended in glial and neuronal culture medium, respectively. A 100 μl aliquot of each cell lysate were used for the determination of N-AS using a method previously described.
(§2) To confirm the generation and roles of N-AS in neurons, cells from E18 C57BL/6 mice were prepared as previously described. Cortices were dissected and then dissociated followed by incubation in papain (Worthington) at 37 °C for 15 min. […] Aβ 1–42 (10 μM, 24 h, Invitrogen, 03112) was exposed to neurons and the cells were analyzed for the generation and roles of N-AS. […]

[2] = tested on: immortalized human microglia; test: N-AS generation in human microglia (LC-MS/MS, Supplementary Fig 6a); type: cell-based
Description: as §1, §2

[3] = tested on: APP/PS1 mice; test: COX2 mRNA and protein in microglia of mice treated with N-AS or aspirin (Supplementary Fig 7p,q); type: in vivo, mouse; settings: for COX2 mRNA in microglia: APP/PS1 mice treated, sFig 7p
From the text: Adult neurons and microglia were isolated from the mice brain as previously described. In brief, the cortex of WT (1, 3, 5, or 9-months-old), APP/PS1 (1, 3, 5, or 9-months-old), APP/PS1 treated with N-AS (9-months-old) or APP/PS1 treated with aspirin (9-months-old) mice were minced in Hibernate A (Gibco)/B27 (Invitrogen) medium and dissociated using papain (Worthington) solution. After tissue trituration, cells were separated by Optiprep (Sigma-Aldrich) density gradient centrifugation.
Samples were lysed in RIPA buffer (Cell signaling Technologies), then subjected to SDS-PAGE and transferred to a nitrocellulose membrane. Membranes were blocked with 5% milk, incubated with primary antibody and then incubated with the appropriate horseradish peroxidase-conjugated secondary antibody. […] We performed densitometric quantification using the ImageJ software (National Institutes of Health). Images have been cropped for presentation.
Transgenic mouse lines over-expressing the hAPP695swe (APP) and presenilin-1M146V (PS1) mutations were originated from GlaxoSmithKline (Harlow, UK)[32] and maintained as described previously. […] Because APP/PS1 and 5xFAD mice show sex differences in disease progression, we used only male mice. […] Block randomization method was used to allocate the animals to experimental groups. To eliminate the bias, we were blinded in experimental progress such as data collection and data analysis. […] All protocols were approved by the Kyungpook National University Institutional Animal Care and Use Committee.
For total RNA extraction from the microglia derived from WT, APP/PS1, APP/PS1 mice treated with N-AS, and APP/PS1 mice treated with aspirin, the cells were isolated from the cortex of WT, APP/PS1, APP/PS1 mice treated with N-AS, or aspirin using the methods described above. […] Quantitative real-time PCR was performed using a Corbett research RG-6000 real-time PCR instrument. Primers are described in Supplementary Table 5.

CC(=O)SCCNC(=O)CCNC(=O)[C@H](O)C(C)(C)COP(=O)(O)OP(=O)(O)OC[C@H]1O[C@@H](n2cnc3c(N)ncnc32)[C@H](O)[C@@H]1OP(=O)(O)O [Acetyl-CoA, acetyl-CoA]
N-AS quantification (Fig 3g) ([1]; Ab + supplement): 0.4129 and 0.455 and 0.2582 and 0.5811 and 0.497 | N-AS generation in human microglia ([2]; Ab 50mM + Acetyl CoA 100mM, sFig 6a): 10.5625 and 12.1817 and 11.3721 and 11.7769 | N-AS generation, acetyl-S565 COX2 and SPM secretion, in words ([2]; Aβ-treated human microglia + acetyl-CoA): restored

CC(=O)Oc1ccccc1C(=O)O [Aspirin, acetylsalicylic acid, reference compound]
COX2 mRNA in microglia [3]: 0.57 and 0.65 and 0.68 and 0.49 and 0.61

CCCCCCCCCCCCC/C=C/[C@@H](O)[C@H](CO)NC(C)=O [N-AS, N-((2S,3R,E)-1,3-Dihydroxyoctadec-4-en-2-yl)acetamide]
COX2 mRNA in microglia [3]: 0.91 and 0.92 and 1.07 and 1.22 and 1 | mRNA and protein levels of COX2 ([3]; N-AS-treated vs APP/PS1): did not vary

Ab: Aβ 1–42 (Invitrogen, 03112) used to induce an AD environment in cells
N-AS quantification (Fig 3g) ([1]; Ab, no supplement): 0.5069 and 0.4708 and 0.3905 and 0.3625 and 0.4347 | N-AS quantification (Fig 3a) ([1]; Ab): 0.5349 and 0.246 and 0.4789 and 0.3905 and 0.3625 and 0.4347 | N-AS generation, in words ([2]; Aβ-treated human microglia): reduction of N-AS generation
